Read-outs that look alike come from different tables or passages of the source.

These results are taken from publication PMC3169519 (PLoS Computational Biology, 2011).

The target of one data set is T1, TOP1 (Homo sapiens, UniProt P11387).
T1 construct: endogenous in cells; host or cells: Caco-2 (ATCC)
T1 sequence (P11387 1-765): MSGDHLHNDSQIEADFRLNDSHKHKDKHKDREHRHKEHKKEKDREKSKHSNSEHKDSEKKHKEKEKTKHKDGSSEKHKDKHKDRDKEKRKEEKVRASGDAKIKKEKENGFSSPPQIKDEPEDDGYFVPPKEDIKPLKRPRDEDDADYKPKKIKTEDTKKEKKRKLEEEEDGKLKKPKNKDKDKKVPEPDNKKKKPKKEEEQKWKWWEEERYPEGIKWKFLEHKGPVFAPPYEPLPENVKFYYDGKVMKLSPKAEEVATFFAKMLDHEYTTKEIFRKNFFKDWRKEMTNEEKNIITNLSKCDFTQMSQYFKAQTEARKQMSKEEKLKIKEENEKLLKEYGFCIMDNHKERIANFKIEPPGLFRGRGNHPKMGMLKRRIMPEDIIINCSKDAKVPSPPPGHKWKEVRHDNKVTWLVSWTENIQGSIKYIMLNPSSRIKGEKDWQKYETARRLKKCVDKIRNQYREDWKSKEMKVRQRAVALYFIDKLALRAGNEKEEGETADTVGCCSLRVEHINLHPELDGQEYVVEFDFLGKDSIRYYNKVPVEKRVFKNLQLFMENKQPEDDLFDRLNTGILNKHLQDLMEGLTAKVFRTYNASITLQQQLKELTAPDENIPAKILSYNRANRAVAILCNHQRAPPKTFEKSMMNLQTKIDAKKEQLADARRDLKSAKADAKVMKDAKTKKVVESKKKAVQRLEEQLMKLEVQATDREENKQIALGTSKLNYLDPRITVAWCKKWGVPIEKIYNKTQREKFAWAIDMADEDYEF
The experiment in a line: DNA-bound TOP1 (Topo I Link Kit) after CPT11 exposure of synchronized cells. In kind it is cell-based. The following applies: synchronized Caco-2 cells. How it is done:
The Caco-2 cell line was obtained from the American Type Culture Collection (Rockville, MD). Cells were grown in Dulbecco's modified Eagle's: Ham F12 medium (1∶1) supplemented with penicillin ([…]), streptomycin ( [drawing 195] ), glutamine (2 mM) (Fischer Scientific, Paris, France) and 10% of Fetal Bovine Serum (FBS) (Dutscher, Paris, France). They were maintained in a humidified atmosphere containing 5% [drawing 196] at [drawing 197] . Experiments were performed four days after confluence. CPT11 was purchased from Pfizer (Paris, France). For transport inhibition studies, non-synchronized cells were pre-incubated with verapamil, a non specific inhibitor of ABC transporters ( [drawing 198] for 24 h; Sigma Aldrich, Paris, France). […] Cell synchronization was performed by a serum shock which consisted in a 2-hour exposure to serum rich medium (DMEM:F12 containing 50% FBS). The beginning of the serum shock defined Circadian Time 0 (CT 0).
The Topo I Link Kit (TopoGen, Port Orange, FL) was used to quantify the amount of TOP1 linked on DNA [56]. […] Fractions of [drawing 208] were removed from the top of the gradient, and an aliquot of each fraction ( [drawing 209] ) was diluted (1/5) and quantified at 260 nm with spectrophotometer (Eppendorf, Paris, France). […] Chemoluminescence signals were detected with Las4000 camera and quantified with ImageJ software. […]

Another data set has as its system CESs. The settings on record: cited from earlier work.
The conditions of data set [1]: cancer patients, dumbbell delivery scheme over 6h; cited from earlier work.

`CCc1c2c(nc3ccc(OC(=O)N4CCC(N5CCCCC5)CC4)cc13)-c1cc3c(c(=O)n1C2)COC(=O)[C@]3(O)CC` [CPT11, irinotecan]: the figures for the “DNA-bound TOP1 protein amount, % of TOP1 total protein quantity” value at TOP1 (30 min CPT11 exposure at CT14) and at TOP1 (30 min CPT11 exposure at CT28) were 47% and 35.5%, respectively. The Kces in the data set with CESs ([CES]=1.42 µM) and with CESs ([CES]=2.03 µM) was 53 µM each time. Besides, the Vces in the data set with CESs ([CES]=2.03 µM) is 0.714 µM/h. In data set [1], the “time CPT11 circulating” value is given as “approximately 12 h”.
